Results taken from the supplement of paper PMC10307832.

Experiments:
Test in all cases: relative viability (nuclei count vs DMSO), 5 days (fraction); higher = more cells survive
Pazopanib + Foretinib = compound: Cc1ccc(Nc2nccc(N(C)c3ccc4c(C)n(C)nc4c3)n2)cc1S(N)(=O)=O [Pazopanib] + COc1cc2c(Oc3ccc(NC(=O)C4(C(=O)Nc5ccc(F)cc5)CC4)cc3F)ccnc2cc1OCCCN1CCOCC1 [Foretinib] (partner 0.25 µM)
Method in brief: (§1)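 Lung cancer cell lines were seeded in 1536-well plates and dosed by pin tool the next day, with either a single drug or a fixed anchor-drug dose combined with five library-drug doses (not always all listed) spaced in √10 steps. Five days later, one step fixed the cells and stained their nuclei (final 0.05% Triton X-100, 1% formaldehyde, 1 ug/ml Hoechst), and nuclei were counted on 4× images. Relative viability is the nuclei count in treated wells divided by the count in vehicle wells, and each value is the median of duplicate plates.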

Ponatinib + Dasatinib = compound: Cc1ccc(C(=O)Nc2ccc(CN3CCN(C)CC3)c(C(F)(F)F)c2)cc1C#Cc1cnc2cccnn12 [Ponatinib] + Cc1nc(Nc2ncc(C(=O)Nc3c(C)cccc3Cl)s2)cc(N2CCN(CCO)CC2)n1 [Dasatinib] (partner 0.075 µM)
Method in brief: as §1

Pazopanib + Crizotinib = compound: Cc1ccc(Nc2nccc(N(C)c3ccc4c(C)n(C)nc4c3)n2)cc1S(N)(=O)=O [Pazopanib] + C[C@@H](Oc1cc(-c2cnn(C3CCNCC3)c2)cnc1N)c1c(Cl)ccc(F)c1Cl [Crizotinib] (partner 1 µM)
Method in brief: as §1

Ponatinib + Alpelisib = compound: Cc1ccc(C(=O)Nc2ccc(CN3CCN(C)CC3)c(C(F)(F)F)c2)cc1C#Cc1cnc2cccnn12 [Ponatinib] + Cc1nc(NC(=O)N2CCC[C@H]2C(N)=O)sc1-c1ccnc(C(C)(C)C(F)(F)F)c1 [Alpelisib] (partner 2 µM)
Method in brief: as §1

Cell Line | relative viability (Pazopanib + Foretinib; first compound 0.01 µM) | relative viability (Pazopanib + Foretinib; first compound 0.03162 µM) | relative viability (Pazopanib + Foretinib; first compound 0.1 µM) | relative viability (Pazopanib + Foretinib; first compound 0.3162 µM) | relative viability (Pazopanib + Foretinib; first compound 1 µM) | relative viability (Ponatinib + Dasatinib; first compound 0.002 µM) | relative viability (Ponatinib + Dasatinib; first compound 0.006325 µM) | relative viability (Ponatinib + Dasatinib; first compound 0.06325 µM) | relative viability (Ponatinib + Dasatinib; first compound 0.2 µM) | relative viability (Pazopanib + Crizotinib; first compound 0.01 µM) | relative viability (Pazopanib + Crizotinib; first compound 0.03162 µM) | relative viability (Pazopanib + Crizotinib; first compound 0.1 µM) | relative viability (Pazopanib + Crizotinib; first compound 0.3162 µM) | relative viability (Pazopanib + Crizotinib; first compound 1 µM) | relative viability (Ponatinib + Alpelisib; first compound 0.002 µM) | relative viability (Ponatinib + Alpelisib; first compound 0.006325 µM) | relative viability (Ponatinib + Alpelisib; first compound 0.06325 µM) | relative viability (Ponatinib + Alpelisib; first compound 0.2 µM)
NCI-H1734 | 0.829 | 0.948 | 0.873 | 0.893 | 0.926 | 0.496 | 0.469 | 0.42 | 0.377 | 0.689 | 0.727 | 0.614 | 0.658 | 0.622 | 0.594 | 0.721 | 0.741 | 0.614
NCI-H1755 | 0.79 | 0.868 | 0.896 | 0.872 | 0.874 | 0.453 | 0.388 | 0.362 | 0.385 | 0.817 | 0.847 | 0.962 | 0.844 | 0.857 | 0.905 | 0.96 | 0.957 | 0.854
NCI-H1915 | 1.04 | 1.09 | 1.1 | 1.06 | 0.983 | 0.308 | 0.33 | 0.27 | 0.267 | 0.875 | 0.974 | 0.911 | 0.847 | 0.79 | 0.976 | 1.03 | 1.06 | 0.961
NCI-H1944 | – | 0.94 | 0.905 | 0.861 | 0.986 | 0.218 | 0.21 | 0.221 | 0.202 | 1.13 | 1.11 | 1.05 | 1.04 | 1.05 | 0.824 | 0.943 | 1.1 | 0.954
NCI-H1975 | 0.911 | 0.945 | 0.997 | 1.03 | 1.03 | 0.28 | 0.355 | 0.318 | 0.267 | 0.888 | 1.02 | 0.991 | 0.964 | 0.926 | 0.618 | 0.773 | 0.92 | 0.675
NCI-H1993 | – | 0.69 | 0.783 | 0.728 | 0.817 | 0.684 | 0.661 | 0.832 | 0.603 | 0.871 | 0.902 | 0.971 | 0.926 | 0.877 | 0.63 | 0.793 | 0.71 | 0.688
NCI-H2009 | 1.2 | 1.16 | 1.19 | 1.15 | 1.06 | 0.259 | 0.292 | 0.297 | 0.295 | 1.05 | 1.06 | 1.01 | 1.05 | 0.964 | 1.14 | 1.13 | 1.18 | 1.07
NCI-H2023 | – | 0.886 | 0.77 | 0.849 | 0.893 | 0.494 | 0.522 | 0.807 | 0.409 | 0.695 | 0.762 | 0.666 | 0.613 | 0.728 | 0.642 | 0.639 | 0.666 | 0.61
NCI-H2085 | 0.972 | 1.06 | 1.01 | 0.96 | 1.11 | 0.268 | 0.261 | 0.221 | 0.237 | 0.952 | 0.968 | 0.911 | 0.919 | 0.935 | 0.881 | 1.01 | 1.07 | 0.959
NCI-H2087 | 1.27 | 0.966 | 1.03 | 1.13 | 0.796 | 0.83 | 0.743 | 0.798 | 0.525 | 0.952 | 0.76 | 1.01 | 0.812 | 0.701 | 0.812 | 0.84 | 0.932 | 0.879
NCI-H2126 | 1.16 | 1.18 | 1.26 | 1.06 | 1.06 | 0.554 | 0.564 | 0.65 | 0.531 | 0.935 | 1.09 | 1.03 | 0.96 | 1.03 | 0.779 | 0.769 | 0.851 | 0.852
